Measured values as given in ChEMBL document CHEMBL1126920, “Design and synthesis of an orally active macrocyclic neutral endopeptidase 24.11 inhibitor” (J Med Chem, 1993).

Target: T1, Neprilysin (Rattus norvegicus, UniProt P07861)
T1 sequence (P07861 whole entry): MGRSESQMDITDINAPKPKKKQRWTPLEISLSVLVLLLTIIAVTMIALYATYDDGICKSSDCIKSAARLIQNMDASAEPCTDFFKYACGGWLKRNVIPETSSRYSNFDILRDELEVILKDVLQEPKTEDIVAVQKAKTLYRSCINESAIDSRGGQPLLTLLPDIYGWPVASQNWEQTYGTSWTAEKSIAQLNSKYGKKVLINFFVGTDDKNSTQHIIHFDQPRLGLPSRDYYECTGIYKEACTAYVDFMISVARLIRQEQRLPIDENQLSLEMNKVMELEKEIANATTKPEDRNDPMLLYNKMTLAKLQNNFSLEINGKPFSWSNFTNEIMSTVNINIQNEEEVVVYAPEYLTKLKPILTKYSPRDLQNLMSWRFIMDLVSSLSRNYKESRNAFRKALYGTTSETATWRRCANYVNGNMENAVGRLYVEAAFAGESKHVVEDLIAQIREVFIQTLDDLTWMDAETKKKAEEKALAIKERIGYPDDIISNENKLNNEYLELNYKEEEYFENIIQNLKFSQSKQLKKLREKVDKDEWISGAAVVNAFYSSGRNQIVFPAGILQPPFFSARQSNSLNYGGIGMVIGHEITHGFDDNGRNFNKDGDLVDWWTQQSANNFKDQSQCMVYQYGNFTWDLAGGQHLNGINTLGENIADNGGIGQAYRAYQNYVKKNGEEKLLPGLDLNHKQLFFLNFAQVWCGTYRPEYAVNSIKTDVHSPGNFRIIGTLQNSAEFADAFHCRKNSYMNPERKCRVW
Assay: Inhibition of NEP 24.11 from rat kidney
Format: tissue-based

Row | Structure (SMILES) | IC50 [nM]
1 | O=C1NC(C(=O)Nc2ccccc2)CCCCCCC1CS (configuration not stated) | 551
2 | O=C1NC(C(=O)O)CCCCCCC1CS (single isomer, unassigned; (+)) | 3
3 | O=C1NC(C(=O)N2CCC[C@H]2C(=O)O)CCCCCCC1CS (some centres not stated) | 2
4 | O=C1NC(C(=O)NCCOCCO)CCCCCCC1CS (configuration not stated) | 84
5 | O=C1NC(C(=O)O)CCCCCCC1CS (racemic) | 4
6 | CS(=O)(=O)CCCNC(=O)C1CCCCCCC(CS)C(=O)N1 (configuration not stated) | 63
7 | NCCCC[C@@H](NC(=O)C1CCCCCCC(CS)C(=O)N1)C(=O)O (some centres not stated) | 14
8 | O=C1NC(C(=O)N2C[C@H](O)C[C@H]2C(=O)O)CCCCCCC1CS (single isomer, unassigned; (-)) | 0.8
9 | O=C1NC(C(=O)O)CCCCCCC1CS (single isomer, unassigned; (-)) | > 1000
10 | O=C1NC(C(=O)NCCCO)CCCCCCC1CS (configuration not stated) | 209
11 | O=C1NC(C(=O)N[C@H](CO)C(=O)O)CCCCCCC1CS (some centres not stated) | 11
12 | O=C1NC(C(=O)Nc2cccnc2)CCCCCCC1CS (configuration not stated) | 59
